Marks after values point to notes of the source that are not given here.
What was measured:
osteoblasts MG63 = test: Osteoblast proliferation, MTT method; format: cell-based; conditions: for Cell proliferation (MTT method), absorbance value under 490 nm: MG63, n = 4, x ± s; for effect on MG63 cell proliferation (in words): cocultured 72 h, P<0.05 vs control groups
Description: MTT method is used to evaluate the effects of the drug on the activity of proliferation of osteoblasts MG63, wherein each well of 96-well plate is added with fresh MTT (5 mg/mL) 100 μL, incubated under 37° C. for 4 h, and vibrated every a period of time, then the supernatant is removed, and each well is added with 200 μL DMSO (DMSO, Sigma corp.), and vibrated on micro-oscillator for 10 min, and equivalent amount of liquid is transferred to an new plate, and the absorbance value under 490 nm is measured, referring to table 1.

osteoblasts = test: Calcium deposition assay (alizarin red method); format: cell-based; conditions: for ARS concentration / calcium nodule size: 5 d, n = 4, x ± s; for calcium deposition of osteoblasts (in words): lower / low concentration
Description: Next, each well is added with 1 mL extract (extract preparation: 800 mL 10% acetic acid with 200 mL anhydrous ethyl alcohol), and extracted for 30 min-45 min, kept in dark, shaken slightly, the absorbance of 450 nm wavelength is measured and recorded. […] As alizarin red S and calcium are linear correlated, the calcium deposition is evaluated according to the alizarin red S concentration.

osteoclasts [1] = test: Osteoclast cell formation, counting of TRAP staining positive cells; format: cell-based, Japanese White Rabbit; conditions: for OC cell formation, TRAP staining positive cells counted: n = 6, x ± s
Description: (§1) The osteoclasts is cultured using a modified Chambers method, the new-born Japanese White Rabbit (1 week-age, provided by Experimental Animal Center of West China Medical Center of Sichuan University) is sacrificed by neck dislocation, and dipped in 75% ethanol for 5 min, long bones are taken out under sterile condition, and soft tissue, periosteum as well as osteoepiphysis on the bone surface are removed in D-Hanks balanced salt solution, clean the bone shaft with α-MEM 2 times, and then cut off the long bone longitudinally in α-MEM full media (containing 15% fetal calf serum, penicillin 100 U/mL, streptomycin […], 25 m MHEPES, pH 7.0-7.2), scrape the medullar cavity of the bone gently until it is clean, and use a pipette (5 mL syringe, 25 G syringe needle) to rinse the medullar cavity repeatedly with culture media, and then the rinse solution is collected and filtered with cell strainer to remove bone fragment, and centrifuged at 1000 rpm for 5 min, the precipitate is suspended by 10 mL α-MEM, a hematocytometer is used for cell counting, the cell density in suspension is adjusted to 1×10^7/mL, and inoculate the cells in 6-well plates, and co-cultured with glass slide or bone slice, after 60 min the culture media was replaced with α-MEM induction culture media (containing 15% fetal bovine serum, 10 nM 1, 25-(OH)2VitD3, penicillin 100 U/mL, streptomycin 100 μg/mL, 25 mM HEPES, pH 7.0-7.2), the culture media is replaced every 3 days.
Each group of osteoclasts is performed with tartrate-resistant acid phosphatase (TRAP) staining, observed in optical microscope, and the TRAP staining positive cells are counted.

osteoclasts [2] = test: Osteoclastic absorption, resorption pit size on bone slices; format: cell-based, Japanese White Rabbit; conditions: for formation and size of resorption pit of the osteoclast: 5 days' culture, n = 6, x ± s
Description: as §1

[3] = relative to Etidronate; cited from earlier work

4-(3-carbonylcyclohexano[d][1,2]selenazole-2(3H))-benzyl-1-hydroxyl-methylenediphosphonic acid [SC-8]
Cell proliferation (MTT method), absorbance value under 490 nm (osteoblasts MG63; 10^−5 mol/L, 24 h): 0.376 ± 0.009
Cell proliferation (MTT method), absorbance value under 490 nm (osteoblasts MG63; 10^−5 mol/L, 48 h): 0.412 ± 0.007
Cell proliferation (MTT method), absorbance value under 490 nm (osteoblasts MG63; 10^−5 mol/L, 72 h): 0.342 ± 0.008
Cell proliferation (MTT method), absorbance value under 490 nm (osteoblasts MG63; 10^−7 mol/L, 24 h): 0.373 ± 0.010
Cell proliferation (MTT method), absorbance value under 490 nm (osteoblasts MG63; 10^−7 mol/L, 48 h): 0.439 ± 0.012
Cell proliferation (MTT method), absorbance value under 490 nm (osteoblasts MG63; 10^−7 mol/L, 72 h): 0.709 ± 0.010
Cell proliferation (MTT method), absorbance value under 490 nm (osteoblasts MG63; 10^−9 mol/L, 24 h): 0.355 ± 0.009
Cell proliferation (MTT method), absorbance value under 490 nm (osteoblasts MG63; 10^−9 mol/L, 48 h): 0.421 ± 0.008
Cell proliferation (MTT method), absorbance value under 490 nm (osteoblasts MG63; 10^−9 mol/L, 72 h): 0.773 ± 0.013
effect on MG63 cell proliferation (in words) (osteoblasts MG63; 10^−9 mol/L): enhance MG63 cell proliferation
ARS concentration (osteoblasts; 10^−5 mol/L): 309 ± 13 µg/mL
calcium nodule size (osteoblasts; 10^−5 mol/L): 1.32 ± 0.11 mm^2
ARS concentration (osteoblasts; 10^−7 mol/L): 354 ± 23 µg/mL
calcium nodule size (osteoblasts; 10^−7 mol/L): 1.66 ± 0.16 mm^2
ARS concentration (osteoblasts; 10^−9 mol/L): 395 ± 17 µg/mL
calcium nodule size (osteoblasts; 10^−9 mol/L): 1.96 ± 0.19* mm^2
OC cell formation, TRAP staining positive cells counted (osteoclasts [1]; 10^−5 mol/L, 3 d): 6 ± 2
OC cell formation, TRAP staining positive cells counted (osteoclasts [1]; 10^−5 mol/L, 5 d): 9 ± 2
OC cell formation, TRAP staining positive cells counted (osteoclasts [1]; 10^−7 mol/L, 3 d): 10 ± 2
OC cell formation, TRAP staining positive cells counted (osteoclasts [1]; 10^−7 mol/L, 5 d): 15 ± 4
OC cell formation, TRAP staining positive cells counted (osteoclasts [1]; 10^−9 mol/L, 3 d): 12 ± 3
OC cell formation, TRAP staining positive cells counted (osteoclasts [1]; 10^−9 mol/L, 5 d): 21 ± 6
formation and size of resorption pit of the osteoclast (osteoclasts [2]; 10^−5 mol/L): 12.23 ± 3.06
formation and size of resorption pit of the osteoclast (osteoclasts [2]; 10^−7 mol/L): 64.45 ± 8.77
formation and size of resorption pit of the osteoclast (osteoclasts [2]; 10^−9 mol/L): 118.25 ± 14.73

NCCCC(O)(P(=O)(O)O)P(=O)(O)O [Alen, alendronate sodium, reference compound]
cell proliferation activity (in words) (osteoblasts MG63; 10^−5, 10^−7 mol/L for 72 h, P<0.01 vs control groups): cell proliferation activity is inhibited in different degrees
influence on proliferation of MG63 cells (in words) (osteoblasts MG63; range of concentrations, within 48 h): no influence on proliferation of MG63 cells
calcium deposition of osteoblasts (in words) (osteoblasts): not found that Alen group of low concentration can enhance the calcium deposition of osteoblasts
formation of osteoclasts compared with blank (in words) (osteoclasts [1]; all concentrations): can inhibit the formation of osteoclasts
resorption pits size compared with blank (in words) (osteoclasts [2]; p<0.01): decrease obviously

O=c1c2ccccc2[se]n1-c1ccc(CC(P(=O)(O)O)P(=O)(O)O)cc1 [SC-1, 4-(3-carbonylbenzo[d][1,2]selenazole-2(3H))-benzyl-methylene diphosphonic acid]
effect on MG63 cell proliferation (in words) (osteoblasts MG63; 10^−9 mol/L): enhance MG63 cell proliferation
calcium deposition of osteoblasts (in words) (osteoblasts): increases the calcium deposition of osteoblasts obviously

O=c1c2ccccc2[se]n1-c1ccc(CC(O)(P(=O)(O)O)P(=O)(O)O)cc1 [SC-2, 4-(3-carbonylbenzo[d][1,2]selenazole-2(3H))-benzyl-methylene-1-hydroxyl-methylene diphosphonic acid]
effect on MG63 cell proliferation (in words) (osteoblasts MG63; 10^−9 mol/L): enhance MG63 cell proliferation
calcium deposition of osteoblasts (in words) (osteoblasts): increases the calcium deposition of osteoblasts obviously

O=c1c2cc(Cl)ccc2[se]n1-c1ccc(CC(P(=O)(O)O)P(=O)(O)O)cc1 [SC-9, 4-(3-carbonyl-5-chlorobenzo[d][1,2]selenazole-2(3H))-benzyl-methylene diphosphonic acid]
calcium deposition of osteoblasts (in words) (osteoblasts): increases the calcium deposition of osteoblasts obviously

O=c1c2cc(Cl)ccc2[se]n1-c1ccc(CC(O)(P(=O)(O)O)P(=O)(O)O)cc1 [SC-10, 4-(3-carbonyl-5-chlorobenzo[d][1,2]selenazole-2(3H))-benzyl-1-hydroxyl-methylene diphosphonic acid]
calcium deposition of osteoblasts (in words) (osteoblasts): increases the calcium deposition of osteoblasts obviously

O=c1c2ccccc2[se]n1Cc1ccc(CC(P(=O)(O)O)P(=O)(O)O)cc1 [SC-11, 4-(2-methylbenzo[d][1,2]selenazole-3 (2H)-ketone)-benzyl-methylene diphosphonic acid]
calcium deposition of osteoblasts (in words) (osteoblasts): increases the calcium deposition of osteoblasts obviously

O=c1c2ccccc2[se]n1Cc1ccc(CC(O)(P(=O)(O)O)P(=O)(O)O)cc1 [SC-12, 4-(2-methylbenzo[d][1,2]selenazole-3 (2H)-ketone)-benzyl-1-hydroxyl-methylene diphosphonic acid]
calcium deposition of osteoblasts (in words) (osteoblasts): increases the calcium deposition of osteoblasts obviously

O=c1c2ccccc2[se]n1-c1ccc(CCC(P(=O)(O)O)P(=O)(O)O)cc1 [SC-13, 4-(3-carbonylbenzo[d][1,2]selenazole-2(3H))-phenylethyl-methylenediphosphonic acid]
calcium deposition of osteoblasts (in words) (osteoblasts): increases the calcium deposition of osteoblasts obviously

O=c1c2ccccc2[se]n1-c1ccc(CCC(O)(P(=O)(O)O)P(=O)(O)O)cc1 [SC-14, 4-(3-carbonylbenzo[d][1,2]selenazole-2(3H))-phenylethyl-1-hydroxyl-methylene diphosphonic acid]
calcium deposition of osteoblasts (in words) (osteoblasts): increases the calcium deposition of osteoblasts obviously

O=c1c2ccccc2sn1-c1ccc(CC(P(=O)(O)O)P(=O)(O)O)cc1 [SC-15, 4-(3-carbonylbenzo[d][1,2]sulfonazole-2(3H))-benzyl-methylene diphosphonic acid]
calcium deposition of osteoblasts (in words) (osteoblasts): increases the calcium deposition of osteoblasts obviously

O=P(O)(O)C(O)(Cn1ccnc1)P(=O)(O)O [Zoledronate]
bone affinity, times stronger than Etidronate [3]: over 10000 times
